Results published in PMC10606064, “2-Aminothiazole-Flavonoid Hybrid Derivatives Binding to Tau Protein and Responsible for Antitumor Activity in Glioblastoma” (International Journal of Molecular Sciences, 2023).

Tests used:
[1] = system: T98G glioblastoma cells; experiment: MTT cell viability assay, T98G; type: cell-based; details: Homo sapiens, 72 h, mean ± SEM, read-out: IC50 (metabolic activity)
Procedure: (§1) Cells harvested from sub-confluent monolayers were seeded at 15,000 cells per mL in a 96-well microtiter plate (Cambridge Technology, Labège, France) and cultured for 24 h under standard conditions. Standard medium was then replaced by fresh medium containing no drugs or compounds at different concentrations. The surviving cells were quantified after 72 h by the MTT assay, according to the manufacturer’s instructions. Briefly, 20 µL of 3-(4,5-diMethylThiazol-2-yl)-2,5diphenyl Tetrazolium bromide (MTT) solution at 5 mg.mL^−1 was added to cells for 3 h at 37 °C. The supernatant was discarded and replaced by 100 µL of dimethyl sulfoxide to dissolve formazan crystals. The absorbance was then read at 600 nm by spectrophotometry. For all concentrations of a given compound, cell viability was expressed as the percentage of the ratio between the mean absorbance of treated cells and the mean absorbance of untreated cells. Three independent experiments were performed, and the data were expressed as percentage of survival (using the untreated cells as 100%) and subjected to statistical analysis (n = 3). The IC50 was calculated using the Chou and Talalay method.

[2] = system: U87 glioblastoma cells; experiment: MTT cell viability assay, U87; type: cell-based, human; details: Homo sapiens; U87, 72 h, MTT; mean ± SEM; read-out: IC50 (metabolic activity)
Procedure: as §1

[3] = target: T1, full-length human Tau (hTau40) (Homo sapiens, UniProt P10636); experiment: Tau oligomerization inhibition assay (heparin-induced, thioflavin S fluorescence); type: biochemical; details: 2 µM Tau, heparin-induced, ThS; buffer A pH 6.9; 25 °C per table footnote (37 °C in method); mean ± SD; read-out: Inhibition of Aggregation IC50
T1 construct: The full-length human Tau (hTau40) was expressed in a transformed E. coli BL21 (DE3) strain; made in house; host or cells: E. coli BL21 (DE3)
T1 sequence (P10636 1-441 isoform P10636-8): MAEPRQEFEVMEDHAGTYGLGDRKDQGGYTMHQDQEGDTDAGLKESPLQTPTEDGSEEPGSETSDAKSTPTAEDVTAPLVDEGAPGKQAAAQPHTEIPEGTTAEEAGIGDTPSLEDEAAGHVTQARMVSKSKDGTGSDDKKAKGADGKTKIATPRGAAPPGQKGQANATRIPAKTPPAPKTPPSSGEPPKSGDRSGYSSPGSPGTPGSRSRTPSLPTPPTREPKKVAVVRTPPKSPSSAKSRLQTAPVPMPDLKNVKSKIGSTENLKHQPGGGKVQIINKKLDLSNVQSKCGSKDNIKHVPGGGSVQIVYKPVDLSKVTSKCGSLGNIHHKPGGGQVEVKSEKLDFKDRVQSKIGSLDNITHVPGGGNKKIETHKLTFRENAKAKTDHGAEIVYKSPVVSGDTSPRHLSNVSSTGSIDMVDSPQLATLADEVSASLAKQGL
Procedure: Tau oligomerization inhibition assay was performed at 37 °C in 96-well plates by monitoring thioflavin-S fluorescence at 520 nm after excitation at 440 nm using a microplate reader (POLARstar Omega system, BMG Labtech, Paris, France). The Tau oligomerization process was induced by heparin. […] The plates were shaken at 200 rpm for 10 s before each measurement. The real value of fluorescence at the plateau was determined using SciDAVis v1.23 software. Data were fitted to the SciDAVis built-in ExpGrowth equation by means of nonlinear least-squares regression analysis. Y = Y0 + A × exp(x/t)(1)
The unscaled Levenberg–Marquardt algorithm was used, and initial values were given to Y0, A, and t. The final Y0 value of the model corresponds to the plateau value. The plateau values were then used to calculate the Tau oligomerization inhibition percentage. The IC50 for each compound was calculated from the scatter plot of Tau oligomerization inhibition (in percentage) as a function of log10 of compound concentration. The IC50 value (in µM) thus corresponds to ten raised to the power of […].

[4] = system: U251 glioblastoma cells; experiment: MTT cell viability assay, U251; type: cell-based; details: Homo sapiens, U-251, U251, 72 h, mean ± SEM, read-out: IC50 (metabolic activity)
Procedure: as §1

[5] = system: U138 glioblastoma cells; experiment: MTT cell viability assay, U138; type: cell-based; details: Homo sapiens, U138, 72 h, mean ± SEM, read-out: IC50 (metabolic activity)
Procedure: as §1

[6] = system: U87 shTau cells; experiment: MTT cell viability assay, U87 shTau (Tau-depleted); type: cell-based; details: Homo sapiens, 72 h, mean ± SEM, read-out: IC50 (metabolic activity)
Procedure: (§2) All cell lines were purchased from ATCC, Gaithersburg, MD, USA. Cells from human glioblastoma (clones U87 wt, HTB-14; U118, HTB-15; U251, HTB-12; U138, HTB-16), neuroblastoma (clone SK-N-SH, HTB-11), and colorectal adenocarcinoma (clone Caco-2, HTB-37) were routinely grown at 37 °C in a humidified atmosphere containing 5% CO2. Cells were maintained by regular passages in complete media supplemented with 10% FBS, 2mM of L-glutamine, 100 U/mL of penicillin, and 50 U/mL of streptomycin (Invitrogen, Paris, France). For U87 wt, U251, U138, and SK-N-SH cells, the medium consisted of EMEM (Lonza, Levallois Perret, France). U118 and Caco-2 lines were maintained in DMEM. The U87 wt-derived lines, U87 shCTRL, and U87 shTau2 cells were continuously maintained in complete EMEM medium supplemented with 0.4 µg/mL of puromycin. The shRNA sequences and the protocol of clone selection and Tau downregulation were previously described in [20]. For Tau expression rescue, the U87 shCTRL and U87 shTau cells were seeded two days prior to experiments at 4.10^5 cells per 60 mm dish in 6 mL of complete medium. Cells were transfected using LipofectAmine 2000 according to Invitrogen instructions and 8 µg EGFP-free plasmid constructs (for U87 shCTRL) and EGFP-hTau40 plasmid constructs (for U87 shTau) were used in total. One day prior to experiments, all cells were plated in a 96-well microtiter plate to prepare for viability assays. Cells were free from mycoplasma as determined by mycoalert tests (Lonza).
as §1

[7] = system: U87 shCTRL cells; experiment: MTT cell viability assay, U87 shCTRL (expressing Tau); type: cell-based, human; details: Homo sapiens; U87 shCTRL, 72 h, MTT; mean ± SEM; read-out: IC50 (metabolic activity)
Procedure: as §2, §1

[8] = target: T2, Tau protein (full-length human Tau, hTau40) (Homo sapiens, UniProt P10636); experiment: Tau intrinsic fluorescence quenching, modified Stern–Volmer binding parameters; details: 5 µM Tau, buffer B pH 6.8, mean ± SD; for Kd: read-out: Equilibrium Binding Constants to Tau, KD
T2 construct: The full-length human Tau (hTau40) was expressed in a transformed E. coli BL21 (DE3) strain; made in house; host or cells: E. coli BL21 (DE3)
T2 sequence (P10636 1-441 isoform P10636-8): as above
Procedure: Fluorescence measurements were performed with a Horiba Jobin Yvon FluoroMax-3 spectrofluorometer. […] For experiments, the excitation wavelength was fixed at 275 nm, and the emission spectra were recorded between 280 nm and 500 nm at room temperature. The inner filter effects were corrected according to Lakowicz as follows:F = Fobs × exp{(Aem + Aex)/2}(2) where Fobs and F are the observed and corrected fluorescence values at the emission wavelength of 303 nm. Aex and Aem are the absorptions at the excitation and emission wavelengths, respectively, calculated with A = ε.l.C, in which ε is the extinction coefficient of Tau, l is the path length of cuvette, and C is Tau concentration.
The total fluorescence in the absence of quencher (F0) is given by:F0 = F0a + F0b(4) where 0 refers to the fluorescence intensity in the absence of quencher.
In the presence of quencher, we defined fa as the fraction of the initial fluorescence of Tau accessible to compounds:fa = F0a/(F0a + F0b)(5)
Therefore, the intensity of the accessible fraction (fa) is decreased according to the Stern–Volmer equation, whereas the buried fraction is not quenched, as given by:F = {F0a/(1 + K.[Q])} + F0b(6)
Then, subtraction of Equations (6) and (4) yields:ΔF = F0 − F = F0a × {K.[Q]/(1 + K.[Q])}(7)
At last, inversion of Equation (7) followed by division into Equation (4) yields:F0/ΔF = {1/(fa.K.[Q])} + 1/fa(8)
We applied this modified form of the Stern–Volmer equation to graphically determine the values of fa and K. For our experiments, we plotted F0/ΔF against 1/[Q], then we determined the fa value at the point of intersection with the y-axis, while the slope represented (faK)^−1.

[9] = system: SK-N-SH neuroblastoma cells; experiment: MTT cell viability assay, SK-N-SH; type: cell-based; details: Homo sapiens, 72 h, mean ± SEM, read-out: IC50 (metabolic activity)
Procedure: as §1

[10] = system: Caco-2 colon adenocarcinoma cells; experiment: MTT cell viability assay, Caco-2; type: cell-based; details: Homo sapiens, Caco-2 (not expressing Tau), 72 h, mean ± SEM, read-out: IC50 (metabolic activity)
Procedure: as §1

Compound: Nc1nc2ccc3oc(-c4ccc(F)cc4)cc(=O)c3c2s1 [Compound 8]
- IC50 [1]: > 100 µM
- IC50 [2]: > 100 µM
- IC50 [3]: 15 ± 1.2 µM
- IC50 [4]: 3.6 ± 1.1 µM
- IC50 [5]: 10.2 ± 5 µM

Compound: Nc1nc2ccc3oc(-c4ccc(F)cc4)c(O)c(=O)c3c2s1 [Compound 11]
- IC50 [6]: 0.4 ± 0.4 µM
- IC50 [7]: 0.3 ± 0.2 µM
- IC50 [1]: 3.5 ± 1 µM
- IC50 [2]: 5.1 ± 1.8 µM
- IC50 [3]: > 100 µM
- Equilibrium Binding Constants to Tau, fA (Tyr accessible fraction) [8]: 0.16 ± 0.01
- Kd [8]: 5.2 ± 1.8 µM
- IC50 [4]: 1.9 ± 0.2 µM
- IC50 [5]: 5 ± 1.1 µM

Compound: COc1c(-c2ccc(F)cc2)oc2ccc3nc(N)sc3c2c1=O [Compound 15]
- IC50 [1]: 11.3 ± 4.1 µM
- IC50 [2]: 8.8 ± 3.3 µM
- IC50 [3]: 6.5 ± 0.1 µM
- Equilibrium Binding Constants to Tau, fA (Tyr accessible fraction) [8]: 0.23 ± 0.03
- Kd [8]: 4.1 ± 1 µM
- IC50 [4]: 1.9 ± 0.2 µM
- IC50 [5]: 4.1 ± 1.6 µM

Compound: Nc1nc2ccc3oc(-c4ccccc4)c(O)c(=O)c3c2s1 [Compound 12]
- IC50 [6]: 0.5 ± 0.3 µM
- IC50 [7]: 0.6 ± 0.1 µM
- IC50 [1]: 1.7 ± 0.9 µM
- IC50 [2]: 4.1 ± 3.4 µM
- IC50 [3]: 12.4 ± 1.2 µM
- Equilibrium Binding Constants to Tau, fA (Tyr accessible fraction) [8]: 0.19 ± 0.05
- Kd [8]: 4.7 ± 1.3 µM

Compound: Nc1nc2ccc3oc(-c4ccccc4)cc(=O)c3c2s1 [Compound 3]
- IC50 [6]: > 100 µM
- IC50 [7]: > 100 µM
- IC50 [1]: > 100 µM
- IC50 [2]: > 100 µM
- IC50 [3]: > 100 µM
- IC50 [9]: > 100 µM
- IC50 [10]: > 100 µM
- IC50 [4]: > 100 µM
- IC50 [5]: > 100 µM

Compound: Nc1nc2ccc3oc(-c4ccccc4F)cc(=O)c3c2s1 [Compound 6]
- IC50 [1]: 2.9 ± 0.7 µM
- IC50 [2]: 2.6 ± 1.3 µM
- IC50 [3]: 9 ± 0.5 µM
- IC50 [4]: 1.3 ± 0.4 µM
- IC50 [5]: 1 ± 0.4 µM

Compound: CCOC(=O)c1ccc(-c2cc(=O)c3c(ccc4nc(N)sc43)o2)cc1 [Compound 4]
- IC50 [6]: > 100 µM
- IC50 [7]: > 100 µM
- IC50 [1]: > 100 µM
- IC50 [2]: > 100 µM
- IC50 [3]: 9.7 ± 0.2 µM
- IC50 [9]: > 100 µM
- Equilibrium Binding Constants to Tau, fA (Tyr accessible fraction) [8]: 0.12 ± 0.01
- Kd [8]: 2.4 ± 0.8 µM
- IC50 [10]: > 100 µM
- IC50 [4]: > 100 µM
- IC50 [5]: > 100 µM

Compound: Nc1nc2ccc3oc(-c4cccc(F)c4)c(O)c(=O)c3c2s1 [Compound 10]
- IC50 [6]: 1.4 ± 0.6 µM
- IC50 [7]: 1.2 ± 0.4 µM
- IC50 [1]: 1.5 ± 0.7 µM
- IC50 [2]: 2.6 ± 1.5 µM
- IC50 [3]: 9.9 ± 1.1 µM
- Kd [8]: 6.3 ± 1.2 µM
- IC50 [4]: 1 ± 0.4 µM
- IC50 [5]: 0.9 ± 0.4 µM

Compound: COc1c(-c2ccccc2F)oc2ccc3nc(N)sc3c2c1=O [Compound 13]
- IC50 [1]: 9.2 ± 1.2 µM
- IC50 [2]: 7.9 ± 3.4 µM
- IC50 [3]: 9 ± 0.6 µM
- Equilibrium Binding Constants to Tau, fA (Tyr accessible fraction) [8]: 0.21 ± 0.02
- Kd [8]: 5.4 ± 2.5 µM
- IC50 [4]: 1.7 ± 0.1 µM
- IC50 [5]: 1.5 ± 0.3 µM

Compound: Nc1nc2ccc3oc(-c4cccc(F)c4)cc(=O)c3c2s1 [Compound 7]
- IC50 [1]: > 100 µM
- IC50 [2]: > 100 µM
- IC50 [3]: 17 ± 2.9 µM
- Equilibrium Binding Constants to Tau, fA (Tyr accessible fraction) [8]: 0.21 ± 0.02
- Kd [8]: 5.9 ± 1.6 µM
- IC50 [4]: > 100 µM
- IC50 [5]: > 100 µM

Compound: Nc1nc2ccc3nc(-c4cccc(Oc5ccccc5)c4)[nH]c(=O)c3c2s1 [Compound 16]
- IC50 [6]: > 100 µM
- IC50 [7]: > 100 µM
- IC50 [1]: > 100 µM
- IC50 [2]: > 100 µM
- IC50 [3]: 10.8 ± 2.2 µM
- Equilibrium Binding Constants to Tau, fA (Tyr accessible fraction) [8]: 0.20 ± 0.03
- Kd [8]: 5 ± 2.5 µM
- IC50 [4]: > 100 µM
- IC50 [5]: > 100 µM

Compound: Nc1nc2ccc3nc(-c4ccc(Oc5ccccc5)cc4)[nH]c(=O)c3c2s1 [Compound 17]
- IC50 [6]: > 100 µM
- IC50 [7]: > 100 µM
- IC50 [1]: > 100 µM
- IC50 [2]: 5.1 ± 0.8 µM
- IC50 [3]: > 100 µM
- IC50 [9]: > 100 µM
- Equilibrium Binding Constants to Tau, fA (Tyr accessible fraction) [8]: 0.14 ± 0.05
- Kd [8]: 3.5 ± 1 µM
- IC50 [10]: > 100 µM
- IC50 [4]: > 100 µM
- IC50 [5]: > 100 µM
